IC50 data for 16 compounds are collected here from BindingDB's records for doi:10.7270/Q2DB809V (Burnham Center For Chemical Genomics, 2010).

For orientation: IC50 means the concentration that gives 50% inhibition.

The assay has as its target Intestinal-type alkaline phosphatase (Mus musculus, UniProt P24822). Put plainly: PubChem AID 488785.

Sequence of Intestinal-type alkaline phosphatase (P24822 whole entry, looked up): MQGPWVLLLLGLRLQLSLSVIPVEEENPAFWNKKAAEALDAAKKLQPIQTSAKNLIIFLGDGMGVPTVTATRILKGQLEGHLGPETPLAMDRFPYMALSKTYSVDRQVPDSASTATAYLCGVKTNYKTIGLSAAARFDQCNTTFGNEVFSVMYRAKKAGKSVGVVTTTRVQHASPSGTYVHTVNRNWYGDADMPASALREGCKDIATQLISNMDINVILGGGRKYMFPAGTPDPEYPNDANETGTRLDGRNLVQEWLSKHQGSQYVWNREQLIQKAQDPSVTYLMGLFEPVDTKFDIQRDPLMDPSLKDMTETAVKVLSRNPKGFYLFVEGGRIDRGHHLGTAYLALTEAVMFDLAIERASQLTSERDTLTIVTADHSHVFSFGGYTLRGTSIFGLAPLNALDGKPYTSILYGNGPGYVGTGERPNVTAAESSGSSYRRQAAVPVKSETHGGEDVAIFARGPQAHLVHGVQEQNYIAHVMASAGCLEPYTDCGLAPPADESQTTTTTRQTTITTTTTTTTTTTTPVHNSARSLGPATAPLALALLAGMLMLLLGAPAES

`Cc1ccc(Cl)c2c1NC(=O)/C2=C1/NC(=S)NC1=O`: the half-inhibitory concentration (IC50) came out at 0.206 µM.

Compound `Nc1nnc(CC(=O)N/N=C/C2C=C([N+](=O)[O-])C=C(Br)C2=O)s1` (stereo unspecified) [2-(5-azanyl-1,3,4-thiadiazol-2-yl)-N'-[(E)-(5-bromanyl-3-nitro-6-oxidanylidene-cyclohexa-2,4-dien-1-ylidene)methyl]ethanehydrazide] showed an IC50 of 2.79 µM.

Take `NS(=O)(=O)c1cc(C(=O)NNC2=c3ccccc3=NC2=O)ccc1Cl` [2-chloro-5-[[(2-oxoindol-3-yl)amino]carbamoyl]benzenesulfonamide]: half-maximal inhibition (IC50) was put at 42.4 µM. Regarding `COc1cc(C=Nn2c(O)csc2=S)ccc1O` [3-[[(E)-(3-methoxy-4-oxidanylidene-cyclohexa-2,5-dien-1-ylidene)methyl]amino]-2-sulfanylidene-1,3-thiazolidin-4-one], half-maximal inhibition (IC50) required 2.2 µM. The compound `Oc1ccc(C=Nn2c(O)csc2=S)c(O)c1O` [3-[[(E)-[2,3-bis(oxidanyl)-4-oxidanylidene-cyclohexa-2,5-dien-1-ylidene]methyl]amino]-2-sulfanylidene-1,3-thiazolidin-4-one] returned an IC50 of 4.15 µM. In the case of `CC1NON=C1C(=O)NN=CC1=CC(=O)C(=O)C=C1` (stereo unspecified) [4-Methyl-furazan-3-carboxylic acid (3,4-dihydroxy-benzylidene)-hydrazide], half-maximal inhibition (IC50) required 9.92 µM.

The compound `Oc1ccc(CN=Nc2cc(N3CCCC3)nc(N3CCCC3)n2)cc1O` [(4Z)-4-[[2-(2,6-dipyrrolidin-1-ylpyrimidin-4-yl)hydrazinyl]methylidene]-2-hydroxycyclohexa-2,5-dien-1-one] gave an IC50 of 1.51 µM. `Cc1ccc(/C=C2\SC(=S)N(/N=C/C3C=C([N+](=O)[O-])C=CC3=O)C2=O)o1` (stereo unspecified) [(5Z)-5-[(5-methylfuran-2-yl)methylidene]-3-[[(E)-(3-nitro-6-oxocyclohexa-2,4-dien-1-ylidene)methyl]amino]-2-sulfanylidene-1,3-thiazolidin-4-one] yielded an IC50 of 61.9 µM.

`C#CCOCCOCCOCCNc1nc(N2CCN(C(=O)CCCCCCCCCCNC(=O)[C@H]([C@@H](C)CC)n3cc(CCCCN=C(N)N)nn3)CC2)nc(N2CCN(C(=O)CCCCCCCCCCNC(=O)[C@@H]([C@H](C)O)n3cc(C)nn3)CC2)n1` [GT-RI] registered an IC50 of 0.366 µM.

`C#CCOCCOCCOCCNc1nc(N2CCN(C(=O)CCCCCCCCCCNC(=O)Cn3cc(CCCCCN)nn3)CC2)nc(N2CCN(C(=O)CCCCCCCCCCNC(=O)Cn3cc(C[C@@H](C)O)nn3)CC2)n1` [KG-TG]: the IC50 stood at 6.31 µM. Then `C#CCOCCOCCOCCNc1nc(N2CCN(C(=O)CCCCCCCCCCNC(=O)[C@@H](CCC(=O)O)n3cc(CCCCCN)nn3)CC2)nc(N2CCN(C(=O)CCCCCCCCCCNC(=O)[C@H]([C@@H](C)CC)n3cc(CCCCCN)nn3)CC2)n1` [KI-KE], with 17.1 µM; and `O=C1C=CC(C=NNC(=S)Nc2ccccc2[N+](=O)[O-])C=C1O` (stereo unspecified) [MLS000417596], with 0.216 µM. Regarding `C#CCOCCOCCOCCNc1nc(N2CCN(C(=O)CCCCCCCCCCNC(=O)[C@@H](CCSC)n3cc(CCO)nn3)CC2)nc(N2CCN(C(=O)CCCCCCCCCCNC(=O)[C@H]([C@@H](C)CC)n3cc(CCCCCN)nn3)CC2)n1` [MLS002153719], half-maximal inhibition (IC50) was put at 5.89 µM. The compound `O=C(Nn1c(O)csc1=S)C(=O)Nn1c(O)csc1=S` [SMR000349781] gave a 50% inhibitory concentration (IC50) of 7.75 µM.

Take `O=C1C=CC(/C=C/c2nc(O)c([N+](=O)[O-])c(=O)[nH]2)C=C1O` (stereo unspecified) [SMR000524347]: the IC50 was determined as 1.04 µM. Compound `COc1cc(C=CC(=O)CC(=O)C=Cc2ccc(O)cc2)ccc1O` [demethoxycurcumin] displayed an IC50 of 8.38 µM.
